# Test results from patent publication US10246442B2, “4-Aminoquinazolin compounds as prolyl hydroxylase inhibitors” (JANSSEN PHARMACEUTICA NV, priority 2011, dated 2019).
# Tests used:
# [1] = tested on: HIF1-α, Hela cells; assay: Cellular assay for HIF1-α in Hela cells; format: cell-based; conditions: Homo sapiens, 100 μM compound, 6 hours, percent of HIF stimulation relative to assay control compound 7-[(4-Chloro-phenyl)-(5-methyl-isoxazol-3-ylamino)-methyl]-quinolin-8-ol
# Description: Cellular Assay for HIF1-α
# Hela cells (ATCC, Manassas, Va.) were plated in 96-well plates at 20,000 cells per well in 100 μl of DMEM containing 10% fetal bovine serum, 1% non-essential amino acids, 50 IU/mL of penicillin and 50 μg/mL of streptomycin (all cell culture reagents from Invitrogen, Carlsbad, Calif.). 24 hours after plating, changed media to 100 ul of DMEM without 10% fetal bovine serum, 1.1 μl of the stock solution for each compound was added and incubated for 6 hours. All compounds were tested with a final compound concentration of 100 μM. The supernatant was removed and the cells were lysed in 55 μl of MSD lysis buffer containing protease inhibitors. 50 μl of the cell lysate was then transferred to a blocked MSD human HIF-1α detection plate (Meso-Scale Discovery, Gaithersburg, Md., as per manufacturers protocol), and incubated at room temperature on an orbital shaker for 2 hour. After 3 washes in PBS, 25 μl of 20 nM anti-HIF1α a detection antibody was added and incubated for 1 hour at room temperature on an orbital shaker. After 3 washes in PBS, 150 μl of 1× read buffer was added and the plate was then read on a MSD SECTOR instrument. Data was analyzed by determining the percent of HIF stimulation in the presence of 100 μM compound relative to an assay control compound, 7-[(4-Chloro-phenyl)-(5-methyl-isoxazol-3-ylamino)-methyl]-quinolin-8-ol.
# [2] = target: PHD2181-417 (Homo sapiens (Human), UniProt Q9GZT9); assay: PHD enzymatic assay ([14C]-succinic acid production); format: biochemical; conditions: purified PHD2181-417, HIF-1α peptide substrate, 30 min pre-incubation; average of results
# Procedure, shortened: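 Recombinant human PHD2 (aa 181-417, E. coli-expressed, tags cleaved) with peptide substrate (10 μM) and [5-14C]-2-oxoglutarate in Tris pH 7.5 with catalase, DTT and ascorbate, 10 min reaction after 30 min compound pre-incubation; compounds at 100 μM final, 1% DMSO. [14C]-succinate separated by DNP precipitation and beta-counted; IC50 from three-parameter logistic fit.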
# Sequence of PHD2181-417 (Q9GZT9 181-417): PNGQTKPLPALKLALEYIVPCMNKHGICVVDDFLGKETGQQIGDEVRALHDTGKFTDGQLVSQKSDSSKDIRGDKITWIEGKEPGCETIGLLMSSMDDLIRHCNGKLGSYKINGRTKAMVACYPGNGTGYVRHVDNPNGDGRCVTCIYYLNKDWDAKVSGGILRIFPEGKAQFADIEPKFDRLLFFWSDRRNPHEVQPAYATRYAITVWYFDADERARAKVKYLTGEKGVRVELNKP
SMILES,activation at 100 µM [1] [%],Enzyme pIC50 [2]
"O=C(O)c1cnn(-c2nc(N3CCCC3)c3cc(-c4ccccc4)ccc3n2)c1 [Example 43, 1-(6-Phenyl-4-(pyrrolidin-1-yl)quinazolin-2-yl)-1H-pyrazole-4-carboxylic acid]",57,7.3
"O=C(O)c1cnn(-c2nc(Nc3ccccc3)c3cc(-c4ccccc4)ccc3n2)c1 [Example 44, 1-(6-Phenyl-4-(phenylamino)quinazolin-2-yl)-1H-pyrazole-4-carboxylic acid]",22,7.1
"O=C(O)c1cnn(-c2nc(Nc3ccccc3Cl)c3cc(-c4ccccc4)ccc3n2)c1 [Example 47, 1-(4-((2-Chlorophenyl)amino)-6-phenylquinazolin-2-yl)-1H-pyrazole-4-carboxylic acid]",10,6.6
"O=C(O)c1cnn(-c2nc(N3CCCCCC3)c3cc(-c4ccccc4)ccc3n2)c1 [Example 48, 1-(4-(Azepan-1-yl)-6-phenylquinazolin-2-yl)-1H-pyrazole-4-carboxylic acid]",23,7.2
"O=C(O)c1cnn(-c2nc(NCC3CCCCC3)c3cc(-c4ccccc4)ccc3n2)c1 [Example 49, 1-(4-((Cyclohexylmethyl)amino)-6-phenylquinazolin-2-yl)-1H-pyrazole-4-carboxylic acid]",3.8,6.9
"N#CNc1nc(-n2cc(C(=O)O)cn2)nc2ccc(-c3ccccc3)cc12 [Example 50, 1-(4-Cyanamido-6-phenylquinazolin-2-yl)-1H-pyrazole-4-carboxylic acid]",9.6,7.1
"O=C(O)c1cnn(-c2nc(NC3CC3)c3cc(-c4ccccc4)ccc3n2)c1 [Example 51, 1-(4-(Cyclopropylamino)-6-phenylquinazolin-2-yl)-1H-pyrazole-4-carboxylic acid]",40,6.5
"CC(C)(C)Nc1nc(-n2cc(C(=O)O)cn2)nc2ccc(-c3ccccc3)cc12 [Example 52, 1-(4-(tert-Butylamino)-6-phenylquinazolin-2-yl)-1H-pyrazole-4-carboxylic acid]",37,6.5
"Nc1nc(-n2cc(C(=O)O)cn2)nc2ccc(-c3ccccc3)cc12 [Example 53, 1-(4-Amino-6-phenylquinazolin-2-yl)-1H-pyrazole-4-carboxylic acid]",16,7.0
"CC(=O)NC1CCN(c2nc(-n3cc(C(=O)O)cn3)nc3ccc(-c4ccccc4)cc23)CC1 [Example 55, 1-(4-(4-Acetamidopiperidin-1-yl)-6-phenylquinazolin-2-yl)-1H-pyrazole-4-carboxylic acid]",28,6.7
"O=C(O)c1cnn(-c2nc(NC3CCOCC3)c3cc(-c4ccccc4)ccc3n2)c1 [Example 56, 1-(6-Phenyl-4-((tetrahydro-2H-pyran-4-yl)amino)quinazolin-2-yl)-1H-pyrazole-4-carboxylic acid]",25,6.2
"CN1CCCN(c2nc(-n3cc(C(=O)O)cn3)nc3ccc(-c4ccccc4)cc23)CC1 [Example 57, 1-(4-(4-Methyl-1,4-diazepan-1-yl)-6-phenylquinazolin-2-yl)-1H-pyrazole-4-carboxylic acid]",30,6.4
"O=C(O)c1cnn(-c2nc(N3CCOCC3)c3cc(-c4ccccc4)ccc3n2)c1 [Example 58, 1-(4-Morpholino-6-phenylquinazolin-2-yl)-1H-pyrazole-4-carboxylic acid]",49,6.5
"N#CC1CCN(c2nc(-n3cc(C(=O)O)cn3)nc3ccc(-c4ccccc4)cc23)CC1 [Example 59, 1-(4-(4-Cyanopiperidin-1-yl)-6-phenylquinazolin-2-yl)-1H-pyrazole-4-carboxylic acid]",45,6.4
